Measured values taken from patent US9873709B2 (priority 2013, dated 2018).
Structures can show the parent of a compound that is named as a salt.

system: JAK1-dependent STAT6 phosphorylation downstream of IL-13 stimulation in TF-1 human erythroleukemia cells; test: cells; settings: TF-1, read-out: IL-13-pSTAT6 IC50

| IC50 [nM] | Structure (SMILES) |
| --- | --- |
| 767 | COC1(c2ccccc2)CCN(c2cccn3nc(Nc4ccc(C(=O)N(C)C5CCN(C)CC5)cc4)nc23)CC1 [Example 1-5, 4-[[8-(4-methoxy-4-phenyl-1-piperidyl)-[1,2,4]triazolo[1,5-a]pyridin-2-yl]amino]-N-methyl-N-(1-methyl-4-piperidyl)benzamide; hydrochloride] |
| 756 | COC1CCN(c2cccn3nc(Nc4ccc(C(=O)N(C)C5CCN(C)CC5)cc4)nc23)CC1 [Example 1-8, 4-[[8-(4-methoxy-1-piperidyl)-[1,2,4]triazolo[1,5-a]pyridin-2-yl]amino]-N-methyl-N-(1-methyl-4-piperidyl)benzamide] |
| 333 | CN1CCC(N(C)C(=O)c2ccc(Nc3nc4c(N5CCC(O)(c6ccc(C#N)cc6)CC5)cccn4n3)cc2)CC1 [Example 1-21, 4-[[8-[4-(4-cyanophenyl)-4-hydroxy-1-piperidyl]-[1,2,4]triazolo[1,5-a]pyridin-2-yl]amino]-N-methyl-N-(1-methyl-4-piperidyl)benzamide] |

target: isolated recombinant JAK2 kinase domain (Homo sapiens (Human), UniProt O60674); test: not given; settings: read-out: JAK2 Ki
Sequence (O60674 849-1124): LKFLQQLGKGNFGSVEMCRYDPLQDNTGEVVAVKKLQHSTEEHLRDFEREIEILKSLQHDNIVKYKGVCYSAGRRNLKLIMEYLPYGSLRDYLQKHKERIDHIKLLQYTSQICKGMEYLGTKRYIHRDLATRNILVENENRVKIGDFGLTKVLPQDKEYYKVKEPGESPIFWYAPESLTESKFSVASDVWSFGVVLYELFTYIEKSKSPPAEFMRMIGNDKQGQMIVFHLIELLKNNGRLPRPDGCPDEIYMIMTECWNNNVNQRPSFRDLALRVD

| Structure (SMILES) | Ki [nM] |
| --- | --- |
| CN1CCC(N(C)C(=O)c2ccc(Nc3nc4c(Oc5ccccc5)cccn4n3)cc2)CC1 [Example 1-248, N-Methyl-N-(1-methyl-piperidin-4-yl)-4-(8-phenoxy-[1,2,4]triazolo[1,5-a]pyridine-2-ylamino)-benzamide] | 22.1 |
| CN1CCC(N(C)C(=O)c2ccc(Nc3nc4c(Oc5ccc6oc(=O)n(Cc7ccccc7)c6c5)cccn4n3)cc2)CC1 [Example 1-264, 4-([8-[(3-benzyl-2-oxo-2,3-dihydro-1,3-benzoxazol-5-yl)oxy]-[1,2,4]triazolo[1,5-a]pyridin-2-yl]amino)-N-methyl-N-(1-methylpiperidin-4-yl)benzamide] | 121 |

same assay, conditions: read-out: JAK2 Ki; isolated recombinant JAK2 kinase domain, 25 μM ATP

| Ki [nM] | Structure (SMILES) |
| --- | --- |
| 2.34 | CN1CCC(N(C)C(=O)c2ccc(Nc3nc4c(N5CCC(CC#N)(C6CCCC6)CC5)cccn4n3)cc2)CC1 [Example 1-257, 4-([8-[4-(cyanomethyl)-4-cyclopentylpiperidin-1-yl]-[1,2,4]triazolo[1,5-a]pyridin-2-yl]amino)-N-methyl-N-(1-methylpiperidin-4-yl)benzamide] |
| 10.7 | CN1CCC(N(C)C(=O)c2ccc(Nc3nc4c(N5CCC(C)(C(=O)NCc6ccccc6)CC5)cccn4n3)cc2)CC1 [Example 1-259, N-benzyl-4-methyl-1-[2-[4-[methyl-(1-methyl-4-piperidyl)carbamoyl]anilino]-[1,2,4]triazolo[1,5-a]pyridin-8-yl]piperidine-4-carboxamide] |
| 2.54 | CN1CCC(N(C)C(=O)c2ccc(Nc3nc4c(N5CCC(CO)(CNCC(F)(F)F)CC5)cccn4n3)cc2)CC1 [Example 1-266, 4-([8-[4-(hydroxymethyl)-4-[[(2,2,2-trifluoroethyl)amino]methyl]piperidin-1-yl]-[1,2,4]triazolo[1,5-a]pyridin-2-yl]amino)-N-methyl-N-(1-methylpiperidin-4-yl)benzamide] |
| 13.2 | CN1CCC(N(C)C(=O)c2ccc(Nc3nc4c(N5CCC(C(=O)O)(c6ccc(Cl)cc6)CC5)cccn4n3)cc2)CC1 [Example 1-269, 4-(4-chlorophenyl)-1-[2-([4-[methyl(1-methylpiperidin-4-yl)carbamoyl]phenyl]amino)-[1,2,4]-triazolo[1,5-a]pyridin-8-yl]piperidine-4-carboxylic acid] |
| 110 | CN1CCC(N(C)C(=O)c2ccc(Nc3nc4c(N5CC6CC5CN6Cc5ccccc5)cccn4n3)cc2)CC1 (stereo not drawn) [Example 1-293, 4-[[8-(5-benzyl-2,5-diazabicyclo[2.2.1]heptan-2-yl)-[1,2,4]triazolo[1,5-a]pyridin-2-yl]amino]-N-methyl-N-(1-methyl-4-piperidyl)benzamide] |
| 6.37 | CN1CCC(N(C)C(=O)c2ccc(Nc3nc4c(N5CCC(C)(NC(=O)c6ccccc6)CC5)cccn4n3)cc2)CC1 [Example 1-302, 4-[[8-(4-benzamido-4-methyl-1-piperidyl)-[1,2,4]triazolo[1,5-a]pyridin-2-yl]amino]-N-methyl-N-(1-methyl-4-piperidyl)benzamide] |
| 4.98 | CN1CCC(N(C)C(=O)c2ccc(Nc3nc4c(N5CCC(C)(NS(=O)(=O)c6ccccc6)CC5)cccn4n3)cc2)CC1 [Example 1-303, 4-[[8-[4-(benzenesulfonamido)-4-methyl-1-piperidyl]-[1,2,4]triazolo[1,5-a]pyridin-2-yl]amino]-N-methyl-N-(1-methyl-4-piperidyl)benzamide] |
| 145 | NCC1(c2ccccc2)CCN(c2cccn3nc(NC(=O)C4CC4)nc23)CC1 [Example 3-1, N-[8-[4-(aminomethyl)-4-phenyl-1-piperidyl]-[1,2,4]triazolo[1,5-a]pyridin-2-yl]cyclopropane carboxamide; hydrochloride] |

Further lines, the compound ahead of its results:

| Structure (SMILES) | Ki [nM] |
| --- | --- |
| COC1(c2ccccc2)CCN(c2cccn3nc(Nc4ccc(C(=O)N(C)C5CCN(C)CC5)cc4)nc23)CC1 [Example 1-5, 4-[[8-(4-methoxy-4-phenyl-1-piperidyl)-[1,2,4]triazolo[1,5-a]pyridin-2-yl]amino]-N-methyl-N-(1-methyl-4-piperidyl)benzamide; hydrochloride] | 5.15 |
| COC1CCN(c2cccn3nc(Nc4ccc(C(=O)N(C)C5CCN(C)CC5)cc4)nc23)CC1 [Example 1-8, 4-[[8-(4-methoxy-1-piperidyl)-[1,2,4]triazolo[1,5-a]pyridin-2-yl]amino]-N-methyl-N-(1-methyl-4-piperidyl)benzamide] | 23.1 |
| CN1CCC(N(C)C(=O)c2ccc(Nc3nc4c(N5CCC(O)(c6ccc(C#N)cc6)CC5)cccn4n3)cc2)CC1 [Example 1-21, 4-[[8-[4-(4-cyanophenyl)-4-hydroxy-1-piperidyl]-[1,2,4]triazolo[1,5-a]pyridin-2-yl]amino]-N-methyl-N-(1-methyl-4-piperidyl)benzamide] | 6.49 |
| Cc1ccc(C2(O)CCN(c3cccn4nc(Nc5ccc(C(=O)N(C)C6CCN(C)CC6)cc5)nc34)CC2)cc1 [Example 1-39, 4-[[8-[4-hydroxy-4-(p-tolyl)-1-piperidyl]-[1,2,4]triazolo[1,5-a]pyridin-2-yl]amino]-N-methyl-N-(1-methyl-4-piperidyl)benzamide] | 3.52 |
| COc1ccc(C2(O)CCN(c3cccn4nc(Nc5ccc(C(=O)N(C)C6CCN(C)CC6)cc5)nc34)CC2)cc1 [Example 1-40, 4-[[8-[4-hydroxy-4-(4-methoxyphenyl)-1-piperidyl]-[1,2,4]triazolo[1,5-a]pyridin-2-yl]amino]-N-methyl-N-(1-methyl-4-piperidyl)benzamide] | 4.58 |
| CN1CCC(N(C)C(=O)c2ccc(Nc3nc4c(N5CCC(C(=O)N6CC(C)(C)C6)CC5)cccn4n3)cc2)CC1 [Example 1-42, 4-{8-[4-(3,3-Dimethyl-azetidine-1-carbonyl)-piperidin-1-yl]-1,8a-dihydro [1,2,4]triazolo[1,5a]pyridine-2-ylamino}-N-methyl-N-(1-methyl-piperidin-4-yl)-benzamide] | 1090 |
| CN1CCC(N(C)C(=O)c2ccc(Nc3nc4c(N5CCC(C#N)(c6ccccc6)CC5)cccn4n3)cc2)CC1 [Example 1-45, 4-[[8-(4-cyano-4-phenyl-1-piperidyl)-[1,2,4]triazolo[1,5-a]pyridin-2-yl]amino]-N-methyl-N-(1-methyl-4-piperidyl)benzamide] | 20.4 |
| CN1CCC(N(C)C(=O)c2ccc(Nc3nc4c(N5CCc6ccccc6C5)cccn4n3)cc2)CC1 [Example 1-46, 4-[[8-(3,4-dihydro-1H-isoquinolin-2-yl)-[1,2,4]triazolo[1,5-a]pyridin-2-yl]amino]-N-methyl-N-(1-methyl-4-piperidyl)benzamide] | 10.1 |
| O=C(c1ccc(Nc2nc3c(N4CCC(O)(c5ccc(Cl)cc5)CC4)cccn3n2)cc1)N1CCN(c2ccccn2)CC1 [Example 1-112, [4-[[8-[4-(4-chlorophenyl)-4-hydroxy-1-piperidyl]-[1,2,4]triazolo[1,5-a]pyridin-2-yl]amino]phenyl]-[4-(2-pyridyl)piperazin-1-yl]methanone] | 3.8 |
| CC(=O)NC1(C)CCN(c2cccn3nc(Nc4ccc(C(=O)N(C)C5CCN(C)CC5)cc4)nc23)CC1 [Example 1-260, 4-[[8-(4-acetamido-4-methylpiperidin-1-yl)-[1,2,4]-triazolo[1,5-a]pyridin-2-yl]amino]-N-methyl-N-(1-methylpiperidin-4-yl)benzamide] | 16.3 |
| CN1CCC(N(C)C(=O)c2ccc(Nc3nc4c(N5CCC(C)(N(C)S(=O)(=O)c6ccccc6)CC5)cccn4n3)cc2)CC1 [Example 1-261] | 3.56 |
